Laboratory results: ChEMBL document CHEMBL1139729, “Separation of anti-angiogenic and cytotoxic activities of borrelidin by modification at the C17 side chain” (Bioorg Med Chem Lett, 2006)
The source made the active and inactive calls. The calls are words filed in the database; no cut-off is given here.

Tests used:
NCI-H460 [1] = assay: Antiproliferative activity against H460 cell line at 10 uM; assay type: functional; conditions: Homo sapiens
[2] = (§1) Antiproliferative activity against 394NL cell line at 10 uM; assay type: functional; conditions: Homo sapiens; values are per cent of control
DU-145 [3] = assay: Antiproliferative activity against DU145 cell line at 10 uM; assay type: functional; conditions: Homo sapiens
[4] = (§2) Antiproliferative activity against MDA231 cell line at 10 uM; assay type: functional; conditions: Homo sapiens, MDA-MB-231; values are per cent of control
[5] = (§3) Antiproliferative activity against 251L cell line at 10 uM; assay type: functional; conditions: Homo sapiens; values are per cent of control
[6] = (§4) Antiproliferative activity against 1138L cell line at 10 uM; assay type: functional; conditions: Homo sapiens; values are per cent of control
MCF7 [7] = assay: Antiproliferative activity against MCF7 cell line at 10 uM; assay type: functional; conditions: Homo sapiens
SF-268 [8] = assay: Antiproliferative activity against SF268 cell line at 10 uM; assay type: functional; conditions: Homo sapiens
A498 [9] = assay: Antiproliferative activity against A498 cell line at 10 uM; assay type: functional; conditions: Homo sapiens
LNCaP [10] = assay: Antiproliferative activity against LNCAP cell line at 10 uM; assay type: functional; conditions: Homo sapiens
[11] = (§5) Antiproliferative activity against MDA467 cell line at 10 uM; assay type: functional; conditions: Homo sapiens; values are per cent of control
OVCAR-3 [12] = assay: Antiproliferative activity against OVCAR-3 cell line at 10 uM; assay type: functional; conditions: Homo sapiens
HUVEC [13] = assay: Inhibition of HUVEC tubule formation assessed as number of branches at 25 pM; assay type: functional, Homo sapiens
HUVEC [14] = assay: Inhibition of HUVEC tubule formation assessed as number of branches at 75 pM; assay type: functional, Homo sapiens
HUVEC [15] = assay: Inhibition of HUVEC tubule formation assessed as length of branches at 75 pM; assay type: functional, Homo sapiens
[16] = Antiproliferative activity against NCI60 cell line; assay type: functional, cell-based; conditions: Homo sapiens
HUVEC [17] = assay: Growth inhibition in HUVEC; assay type: functional, cell-based; conditions: Homo sapiens
HUVEC [18] = assay: Inhibition of HUVEC tubule formation assessed as length of branches at 25 pM; assay type: functional, Homo sapiens
Homo sapiens [19] = species: Homo sapiens; assay: as §1; assay type: functional
MDA-MB-231 = assay: as §2; assay type: functional; conditions: Homo sapiens
Homo sapiens [20] = species: Homo sapiens; assay: as §3; assay type: functional
Homo sapiens [21] = species: Homo sapiens; assay: as §4; assay type: functional
Homo sapiens [22] = species: Homo sapiens; assay: as §5; assay type: functional
OVCAR-3 [23] = assay: Antiproliferative activity against OVCAR-3 cell line at 3 uM; assay type: functional; conditions: Homo sapiens
SF-268 [24] = assay: Antiproliferative activity against SF268 cell line at 3 uM; assay type: functional; conditions: Homo sapiens
[25] = Antiproliferative activity against 251L cell line at 3 uM; assay type: functional; conditions: Homo sapiens
A498 [26] = assay: Antiproliferative activity against A498 cell line at 3 uM; assay type: functional; conditions: Homo sapiens
NCI-H460 [27] = assay: Antiproliferative activity against H460 cell line at 3 uM; assay type: functional; conditions: Homo sapiens
DU-145 [28] = assay: Antiproliferative activity against DU145 cell line at 3 uM; assay type: functional; conditions: Homo sapiens
[29] = Antiproliferative activity against MDA467 cell line at 3 uM; assay type: functional; conditions: Homo sapiens
[30] = Antiproliferative activity against 394NL cell line at 3 uM; assay type: functional; conditions: Homo sapiens
[31] = Antiproliferative activity against MDA231 cell line at 3 uM; assay type: functional; conditions: Homo sapiens, MDA-MB-231
MCF7 [32] = assay: Antiproliferative activity against MCF7 cell line at 3 uM; assay type: functional; conditions: Homo sapiens
LNCaP [33] = assay: Antiproliferative activity against LNCAP cell line at 3 uM; assay type: functional; conditions: Homo sapiens
[34] = Antiproliferative activity against 1138L cell line at 3 uM; assay type: functional; conditions: Homo sapiens
HUVEC [35] = assay: Inhibition of HUVEC tubule formation assessed as length of branches at 0.25 pM; assay type: functional, Homo sapiens
HUVEC [36] = assay: Inhibition of HUVEC tubule formation assessed as number of branches at 0.25 pM; assay type: functional, Homo sapiens
[37] = Maximum tolerated dose in iv dosed nude mouse; assay type: ADME, organism-based; conditions: in vivo
HUVEC [38] = assay: Inhibition of HUVEC tubule formation assessed as number of branches at 0.75 pM; assay type: functional, Homo sapiens
HUVEC [39] = assay: Inhibition of HUVEC tubule formation assessed as length of branches at 0.75 pM; assay type: functional, Homo sapiens
HUVEC [40] = assay: Inhibition of HUVEC tubule formation assessed as length of branches at 100 nM; assay type: functional, Homo sapiens
HUVEC [41] = assay: Inhibition of HUVEC tubule formation assessed as number of branches at 100 nM; assay type: functional, Homo sapiens
HUVEC [42] = assay: Inhibition of HUVEC tubule formation assessed as length of branches at 10 nM; assay type: functional, Homo sapiens
HUVEC [43] = assay: Inhibition of HUVEC tubule formation assessed as number of branches at 10 nM; assay type: functional, Homo sapiens

Structure (SMILES)	inhibition at 10 µM (NCI-H460 [1])	growth, % of control at 10 µM [2]	inhibition at 10 µM (DU-145 [3])	growth, % of control at 10 µM [4]	growth, % of control at 10 µM [5]	growth, % of control at 10 µM [6]	inhibition at 10 µM (MCF7 [7])	inhibition at 10 µM (SF-268 [8])	inhibition at 10 µM (A498 [9])	inhibition at 10 µM (LNCaP [10])	growth, % of control at 10 µM [11]	inhibition at 10 µM (OVCAR-3 [12])	IC50 [16]	IC50 (HUVEC [17])	further results
C[C@@H]1C[C@H](C)C[C@H](C)[C@@H](O)CC(=O)O[C@H]([C@H](C)CC(=O)O)C/C=C/C=C(/C#N)[C@H](O)[C@@H](C)C1	38%	9%	55%	20%	26%	5%	12%	13%	21%	24%	15%	32%	–	–	–
C[C@@H]1C[C@H](C)C[C@H](C)[C@@H](O)CC(=O)O[C@H]([C@H](C)[C@H](C)C(=O)O)C/C=C/C=C(/C#N)[C@H](O)[C@@H](C)C1	3%	4%	7%	7%	12%	3%	9%	3%	9%	7%	7%	6%	0.07 µM	0.001 µM	Activity (HUVEC [13]): 116; Activity (HUVEC [14]): 246; Activity (HUVEC [15]): 63; Activity (HUVEC [18]): 62
C/C1=C/C=C/C[C@@H]([C@@H]2CCC[C@H]2C(=O)O)OC(=O)C[C@H](O)[C@@H](C)C[C@@H](C)C[C@@H](C)C[C@H](C)[C@H]1O	–	–	–	–	–	–	–	–	–	–	–	–	–	–	Activity (NCI-H460 [1]): inactive; Activity (Homo sapiens [19]): inactive; Activity (DU-145 [3]): inactive; Activity (MDA-MB-231): inactive; Activity (Homo sapiens [20]): inactive; Activity (Homo sapiens [21]): inactive; Activity (MCF7 [7]): inactive; Activity (SF-268 [8]): inactive; Activity (A498 [9]): inactive; Activity (HUVEC [17]): inactive; Activity (LNCaP [10]): inactive; Activity (Homo sapiens [22]): inactive; Activity (OVCAR-3 [12]): inactive
C[C@@H]1C[C@H](C)C[C@H](C)[C@@H](O)CC(=O)O[C@H](C[C@H](C)C(=O)O)C/C=C/C=C(/C#N)[C@H](O)[C@@H](C)C1	84%	67%	74%	90%	81%	56%	76%	57%	78%	92%	62%	91%	–	–	–
CS[C@H](C[C@@H]1C/C=C/C=C(/C#N)[C@H](O)[C@@H](C)C[C@H](C)C[C@H](C)C[C@H](C)[C@@H](O)CC(=O)O1)C(=O)O	79%	64%	75%	81%	67%	42%	48%	54%	68%	59%	59%	102%	–	–	–
C[C@@H]1C[C@H](C)C[C@H](C)[C@@H](O)CC(=O)O[C@H](C[C@@H](C)C(=O)O)C/C=C/C=C(/C#N)[C@H](O)[C@@H](C)C1	49%	9%	68%	26%	32%	6%	16%	14%	30%	34%	25%	29%	–	–	–
COc1cccc2c1C(=O)c1c(O)c3c(c(O)c1C2=O)C[C@@](O)(C(=O)CO)C[C@@H]3O[C@H]1C[C@H](N)[C@H](O)[C@H](C)O1 [DOXORUBICIN]	–	–	–	–	–	–	–	–	–	–	–	–	–	–	inhibition at 3 µM (OVCAR-3 [23]): 10%; inhibition at 3 µM (SF-268 [24]): 9%; inhibition at 3 µM [25]: 15%; inhibition at 3 µM (A498 [26]): 11%; inhibition at 3 µM (NCI-H460 [27]): 3%; inhibition at 3 µM (DU-145 [28]): 5%; inhibition at 3 µM [29]: 7%; inhibition at 3 µM [30]: 6%; inhibition at 3 µM [31]: 11%; inhibition at 3 µM (MCF7 [32]): 12%; inhibition at 3 µM (LNCaP [33]): 10%; inhibition at 3 µM [34]: 6%
C[C@@H]1C[C@H](C)C[C@H](C)[C@@H](O)CC(=O)O[C@H]([C@@H]2CC[C@H]2C(=O)O)C/C=C/C=C(/C#N)[C@H](O)[C@@H](C)C1	7%	3%	16%	8%	9%	3%	9%	4%	9%	9%	6%	16%	0.3 µM	0.5 µM	Activity (HUVEC [35]): 65; Activity (HUVEC [36]): 38; MTD [37]: > 130 mg/kg; Activity (HUVEC [38]): 40; Activity (HUVEC [39]): 63
C[C@@H]1C[C@H](C)C[C@H](C)[C@@H](O)CC(=O)O[C@H]([C@@H]2CCC[C@H]2C(=O)O)C/C=C/C=C(/C#N)[C@H](O)[C@@H](C)C1 [BORRELIDIN]	4%	2%	5%	12%	8%	2%	13%	3%	8%	7%	6%	11%	0.02 µM	0.0005 µM	Activity (HUVEC [40]): 65; Activity (HUVEC [41]): 233; Activity (HUVEC [42]): 64; Activity (HUVEC [43]): 230
